From US8785446B2, “Treating post-seizure patients” (priority 2009, dated 2014)
“Also recorded” adds a separate entry of the source.

Legend:
[1] = test system: GluR1 S831 and GluR1 S845; assay: AMPAR GluR1 subunit phosphorylation in hippocampus after post-seizure AMPAR antagonist treatment in vivo; design: species or system rat; details: for GluR1 S845 phosphorylation: 12 hours after hypoxia-induced seizures; for GluR1 S845 phosphorylation / GluR1 S831 phosphorylation: single systemic dose within 30 minutes after seizures, vs vehicle; for GluR1 S831 phosphorylation: 12 hours after hypoxic seizures; for GluR1 subunit phosphorylation: post-treatment during the early period after seizure induction
Text: The strength of synaptic transmission in intact neuronal networks, such as in LTP, can be regulated by altered AMPAR function mediated by phosphorylation of GluR1 S831 and GluR1 S845 (Barria et al., 1997; Lee et al., 2000; Lee et al., 2003).
(§1) To determine whether seizure-induced activation of AMPAR plays a critical role in the alterations in EPSCs and subunits reported here, we examined whether pharmacologic inhibition of AMPARs in vivo following hypoxic seizures leads to a decrease in the activity of Ca^2+ dependent protein kinases and GluR1 subunit phosphorylation state. […] Within 30 minutes after hypoxic seizures, rats were treated with a single dose of systemically administered AMPAR antagonists NBQX (20 mg/kg), topiramate (30 mg/kg) or GYKI-53773 (7.5 mg/kg), and compared to vehicle-treated (0.1 ml PBS) hypoxic controls and normoxic littermates.

[2] = test system: CaMKII; assay: CaMKII activity (ELISA) after hypoxic seizures and in vivo AMPAR antagonist treatment; details: 1 hour following hypoxic seizures; in vivo administration vs vehicle
Protocol: (§2) Protein kinase A (PKA) […] mediates the phosphorylation of GluR1 S845 and protein kinase C (PKC) is involved in the phosphorylation of both GluR1 S831 (Kameyama et al., 1998; Mammen et al., 1997) and GluR2 S880 (Seidenman et al., 2003). […] Similarly, CaMKII activity increased at 1 hour post-seizures before returning to baseline levels at 6 hours post-hypoxia. […] The rapid seizure-induced activation of these protein kinases are occurring coincident with the alterations in phosphorylation state of their known substrates, GluR1 S831, GluR1 S845, and GluR2 S880.
as §1, with “littermates. These treatment doses are the same as the treatment paradigm in which we previously observed an attenuation of long-term epileptogenic changes (Koh et al., 2004). […] Importantly, blockade of AMPAR-mediated neurotransmission is the common mechanistic feature of these three structurally unrelated compounds and may represent the potential mode of mediating alterations.” for “littermates.”

[3] = test system: PKC; assay: PKC activity (ELISA) after hypoxic seizures and in vivo AMPAR antagonist treatment; design: species or system rat; details: 6 hours post-hypoxic seizures; vs vehicle
Protocol: as §2
as §1, with “littermates. These treatment doses are the same as the treatment paradigm in which we previously observed an attenuation of long-term epileptogenic changes (Koh et al., 2004). […] Importantly, blockade of AMPAR-mediated neurotransmission is the common mechanistic feature of these three structurally unrelated compounds and may represent the potential mode of mediating alterations.” for “littermates.”

[4] = cited from earlier work
[5] = test system: PKA; assay: PKA activity (ELISA) after hypoxic seizures and in vivo AMPAR antagonist treatment; design: species or system rat; details: 1 hour following hypoxic seizures; vs vehicle
Protocol: as §2
as §1, with “littermates. These treatment doses are the same as the treatment paradigm in which we previously observed an attenuation of long-term epileptogenic changes (Koh et al., 2004). […] Importantly, blockade of AMPAR-mediated neurotransmission is the common mechanistic feature of these three structurally unrelated compounds and may represent the potential mode of mediating alterations.” for “littermates.”

[6] = test system: AMPAR-mediated sEPSCs in CA1 neurons; assay: AMPAR-mediated sEPSCs in ex vivo hippocampal slices after post-seizure treatment in vivo; design: species or system rat; details: for sEPSC amplitude / sEPSC frequency: hippocampal slices prepared 1 hour after administration post hypoxic seizure, vs vehicle; for acute and subacute enhancement in AMPAR EPSCs: post-treatment during the early period after seizure induction
Protocol: Neonatal seizures have been described to enhance the excitability of hippocampal networks as well as cause alterations in long-term network excitability (Jensen et al., 1991; Sanchez et al., 2001; Silverstein and Jensen, 2007; Cornejo et al., 2007), but their acute effects on AMPAR function have not been examined. We compared spontaneous (s) and miniature (m) AMPAR-mediated excitatory postsynaptic currents (EPSCs) in CA1 pyramidal neurons in P10 rat pup hippocampal slices removed 1 hour after hypoxia-induced seizures (hypoxic seizures) and normoxic control rat pups.
Following hypoxic seizures, NBQX, topiramate or GYKI-53773 were administered to the rat pups experiencing hypoxic seizures and hippocampal slices were prepared 1 hour after administration of AMPAR antagonists.

[7] = test system: KA-induced seizures; assay: Susceptibility to KA-induced seizures 3 days after hypoxic seizures at P10; type: in vivo, rat
Protocol: We have previously reported that enhanced hippocampal excitability observed in rat pups following hypoxia-induced seizures is reflected in the increased susceptibility to KA-induced seizures in these animals at both short (72-96 h) and long (40+ days) intervals following the initial seizures at P10 (Koh et al., 2004).

[8] = test system: hypoxia-induced seizures; details: post-seizure treatment within the first 48 hours following hypoxic seizures; cited from earlier work
[9] = test system: GluR2-lacking AMPARs; assay: Evoked EPSC recording in CA1 pyramidal neurons of hippocampal slices removed 1 hour after hypoxic seizures; type: cell-based, rat; details: bath application 10 μM; slices 1 hour after in vivo seizures in P10 pup; compared to normoxic controls
Protocol: The age window around P10-12 is characterized by a relative preponderance of Ca^2+ permeable AMPARs in hippocampal and neocortical neurons resulting from a developmentally regulated decrease in GluR2 subunit expression (Sanchez et al., 2001; Durand and Zukin, 1993; Talos et al., 2006b; Kumar et al., 2002). Additionally, hypoxic seizures have been previously associated with a decrease in the expression of GluR2 mRNA and protein 48 hours following the induction of seizures (Sanchez et al., 2001). However the acute alterations in the phosphorylation and function of GluR-2 lacking AMPARs following hypoxic seizures have not been well-characterized. […] Expression of inwardly rectifying AMPAR-mediated currents can result from an increase in phosphorylation of GluR2 S880 and resultant trafficking of the GluR2 subunit out of the synaptic membrane (Chung et al., 2000; Kim et al., 2001; Seidenman et al., 2003). Indeed, GluR2 S880 phosphorylation was increased in the hippocampus of rats experiencing hypoxic seizures as compared to normoxic litter mates, maximal at 12 hours post hypoxia. This seizure-induced phosphorylation of GluR2 S880 may contribute to the subacute changes in GluR2 expression reported previously (Sanchez et al., 2001), as well as increased inward rectification of EPSPs reported above.

[10] = test system: neonatal seizures; details: cited from earlier work

Row | Compound | GluR1 S845 phosphorylation [1] | GluR1 S831 phosphorylation [1] | GluR1 subunit phosphorylation [1] | activity of CaMKII [2] | seizure-induced increase in PKC activity [3] | cognitive impairment ([4]; preliminary human studies) | seizure-induced PKA activation [5] | sEPSC amplitude [6] | sEPSC frequency [6] | acute and subacute enhancement in AMPAR EPSCs [6] | latency to seizures ([7]; P13, 20 mg/kg i.p., compared to vehicle treated hypoxic controls) | maximal seizure severity ([7]; P13, 20 mg/kg i.p., compared to vehicle-treated pups with prior hypoxic seizures) | enhanced seizure susceptibility ([7]; at P13 (72 hours post-hypoxic seizures), 20 mg/kg i.p. following hypoxic seizures, KA 2 mg/kg i.p.) | long-term increase in susceptibility to seizures [8] | seizure-induced neuronal injury [8] | eEPSCs in CA1 pyramidal neurons post-hypoxia [9] | infants with neonatal seizures in whom efficacy for acute seizure suppression is lacking ([10]; first line therapy) [%] | effect on long-term outcome ([10]; infants with neonatal seizures) | threshold for memory impairment ([4]; healthy volunteers and patients with epilepsy)
1 | CC(=O)N1N=C(c2ccc(N)cc2)c2cc3c(cc2C[C@H]1C)OCO3 [GYKI-53773] | significantly reduced to baseline normoxia levels | significantly reduced to baseline normoxia levels | blocked | reduced to near baseline levels; also recorded: blocked | significantly reduced; also recorded: blocked | less cognitive impairment | blocked | significantly attenuated | attenuation | blocked | – | – | – | – | – | – | – | – | –
2 | NS(=O)(=O)c1cccc2c1c([N+](=O)[O-])cc1nc(O)c(O)nc12 [NBQX] | significantly reduced to baseline normoxia levels | significantly reduced to baseline normoxia levels | blocked | reduced to near baseline levels; also recorded: blocked | significantly reduced; also recorded: blocked | – | reduced significantly; also recorded: blocked | significantly attenuated | attenuation | blocked | significantly longer | significantly lower | significantly attenuated; also recorded: reversal | prevents | prevents | – | – | – | –
3 | CCCC(=O)N[C@@H](Cc1ccc(O)cc1)C(=O)NCCCCNCCCNCCCN [PhTX-433] | – | – | – | – | – | – | – | – | – | – | – | – | – | – | – | blocked the majority of eEPSCs | – | – | –
4 | O=C1NC(=O)C(c2ccccc2)(c2ccccc2)N1 [phenyloin] | – | – | – | – | – | – | – | – | – | – | – | – | – | – | – | – | ~50 | no effect | –
5 | CC1(C)O[C@@H]2[C@@H](CO[C@@]3(COS(N)(=O)=O)OC(C)(C)O[C@@H]23)O1 [topiramate] | significantly reduced to baseline normoxia levels | significantly reduced to baseline normoxia levels | blocked | reduced to near baseline levels; also recorded: blocked | blocked | – | reduced significantly; also recorded: blocked | significantly attenuated | attenuation | blocked | – | – | – | prevents | prevents | – | – | – | lower than lamotrigine and valproate
